Assays:
[1] = target: T1, Pannexin 1 (PANX1) (Homo sapiens, UniProt Q96RD7); test: whole-cell patch clamp in apoptotic Jurkat cells; assay type: cell-based
Target sequence in this assay (Q96RD7 whole entry): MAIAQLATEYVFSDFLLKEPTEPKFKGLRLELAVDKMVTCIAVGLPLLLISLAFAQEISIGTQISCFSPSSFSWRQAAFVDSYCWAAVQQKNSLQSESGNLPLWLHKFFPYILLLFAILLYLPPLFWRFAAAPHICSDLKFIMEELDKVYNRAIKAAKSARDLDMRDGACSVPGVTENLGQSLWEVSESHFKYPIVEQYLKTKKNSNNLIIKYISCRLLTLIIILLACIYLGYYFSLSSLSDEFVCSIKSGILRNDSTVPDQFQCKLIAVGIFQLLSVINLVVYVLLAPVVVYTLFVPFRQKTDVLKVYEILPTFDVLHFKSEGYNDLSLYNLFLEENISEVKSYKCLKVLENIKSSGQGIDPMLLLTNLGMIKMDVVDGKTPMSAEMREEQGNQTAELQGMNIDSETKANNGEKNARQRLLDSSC

[2] = target: T1, Pannexin 1 (PANX1); test: whole-cell patch clamp in HEK293T; assay type: cell-based
Target sequence in this assay (Q96RD7 1-379 limits assumed): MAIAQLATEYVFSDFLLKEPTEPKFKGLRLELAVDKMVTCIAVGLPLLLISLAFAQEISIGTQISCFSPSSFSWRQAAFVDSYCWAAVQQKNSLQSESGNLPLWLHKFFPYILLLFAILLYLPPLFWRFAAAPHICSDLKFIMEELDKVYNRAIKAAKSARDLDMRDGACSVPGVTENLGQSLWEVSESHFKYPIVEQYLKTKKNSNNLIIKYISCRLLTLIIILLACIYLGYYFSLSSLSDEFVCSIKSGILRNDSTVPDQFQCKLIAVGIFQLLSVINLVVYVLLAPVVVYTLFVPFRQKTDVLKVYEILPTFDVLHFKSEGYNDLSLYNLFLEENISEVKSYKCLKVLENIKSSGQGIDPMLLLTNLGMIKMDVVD

CC1(C)[C@@H](OC(=O)CCC(=O)O)CC[C@]2(C)[C@H]3C(=O)C=C4[C@@H]5C[C@@](C)(C(=O)O)CC[C@]5(C)CC[C@@]4(C)[C@]3(C)CC[C@@H]12 [carbenoxolone]
whole-cell patch clamp in apoptotic Jurkat cells [1]: the current sensitive to spironolactone was fully blocked by carbenoxolone (CBX), a drug known to inhibit PANX1

CC(=O)S[C@@H]1CC2=CC(=O)CC[C@]2(C)[C@H]2CC[C@@]3(C)[C@@H](CC[C@@]34CCC(=O)O4)[C@H]12 [spironolactone]
IC50 [2]: 8.7 ± 1.5 µM

From paper PMC5815904 (Circulation research, 2017)
